Experiments:
[1] = molecular target: T1, Cholecystokinin receptor type A (Cavia porcellus, UniProt Q63931); test: Tested for inhibition of [3H]-pCCK-8 specific binding to cholecystokinin type A receptor in guinea pig pancreatic membranes; assay type: cell membranes
T1 sequence (Q63931 whole entry): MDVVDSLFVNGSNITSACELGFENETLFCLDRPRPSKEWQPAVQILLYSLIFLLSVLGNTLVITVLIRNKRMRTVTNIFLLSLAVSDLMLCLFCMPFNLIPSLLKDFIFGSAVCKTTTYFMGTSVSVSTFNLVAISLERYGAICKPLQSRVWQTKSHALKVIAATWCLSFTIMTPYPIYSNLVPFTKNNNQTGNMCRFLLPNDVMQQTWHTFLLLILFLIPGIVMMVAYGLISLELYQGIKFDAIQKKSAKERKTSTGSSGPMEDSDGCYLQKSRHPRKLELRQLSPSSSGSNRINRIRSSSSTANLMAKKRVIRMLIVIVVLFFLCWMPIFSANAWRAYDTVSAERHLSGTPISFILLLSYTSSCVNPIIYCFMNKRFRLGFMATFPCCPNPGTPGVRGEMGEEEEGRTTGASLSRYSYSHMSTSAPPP

[2] = molecular target: T2, Cholecystokinin receptor type A (Rattus norvegicus, UniProt P30551); test: Tested for binding affinity towards cholecystokinin type A receptor in rat pancreas by displacement of [3H]pCCK-8 radioligand
T2 sequence (P30551 whole entry): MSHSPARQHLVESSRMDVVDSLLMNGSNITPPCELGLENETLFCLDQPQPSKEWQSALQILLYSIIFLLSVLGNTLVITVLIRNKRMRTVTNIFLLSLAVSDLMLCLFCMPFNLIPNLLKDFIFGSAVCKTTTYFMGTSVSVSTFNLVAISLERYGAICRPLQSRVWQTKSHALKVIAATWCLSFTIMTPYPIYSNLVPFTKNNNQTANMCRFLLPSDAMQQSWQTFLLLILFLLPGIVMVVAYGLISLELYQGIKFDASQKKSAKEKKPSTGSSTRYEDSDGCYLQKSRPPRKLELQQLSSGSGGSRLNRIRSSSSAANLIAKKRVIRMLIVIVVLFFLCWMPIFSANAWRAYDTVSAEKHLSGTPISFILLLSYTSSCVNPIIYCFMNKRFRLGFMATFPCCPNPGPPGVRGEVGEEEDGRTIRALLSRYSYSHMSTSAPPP

[3] = molecular target: T3, Gastrin/cholecystokinin type B receptor (Rattus norvegicus, UniProt P30553); test: Tested for binding affinity towards cholecystokinin type B receptor in rat […] by displacement of [3H]pCCK-8 radioligand
T3 sequence (P30553 whole entry): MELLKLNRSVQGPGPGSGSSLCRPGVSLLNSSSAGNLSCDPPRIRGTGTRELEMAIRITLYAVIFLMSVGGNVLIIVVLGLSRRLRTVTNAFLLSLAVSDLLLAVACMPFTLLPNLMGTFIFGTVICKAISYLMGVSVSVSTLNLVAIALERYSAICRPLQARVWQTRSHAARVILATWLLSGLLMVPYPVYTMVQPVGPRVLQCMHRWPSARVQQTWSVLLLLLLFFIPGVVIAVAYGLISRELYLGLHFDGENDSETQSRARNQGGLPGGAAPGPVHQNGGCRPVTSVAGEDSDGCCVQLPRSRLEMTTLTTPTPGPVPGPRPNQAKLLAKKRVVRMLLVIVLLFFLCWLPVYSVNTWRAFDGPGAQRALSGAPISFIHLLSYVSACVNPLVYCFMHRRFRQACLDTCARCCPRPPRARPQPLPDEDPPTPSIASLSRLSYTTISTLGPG

[4] = molecular target: T4, Gastrin/cholecystokinin type B receptor (Mus musculus, UniProt P56481); test: Tested for binding affinity towards cholecystokinin type B receptor in mouse brain by displacement of [3H]pBC264 radioligand (icv); assay type: tissue-based
T4 sequence (P56481 whole entry): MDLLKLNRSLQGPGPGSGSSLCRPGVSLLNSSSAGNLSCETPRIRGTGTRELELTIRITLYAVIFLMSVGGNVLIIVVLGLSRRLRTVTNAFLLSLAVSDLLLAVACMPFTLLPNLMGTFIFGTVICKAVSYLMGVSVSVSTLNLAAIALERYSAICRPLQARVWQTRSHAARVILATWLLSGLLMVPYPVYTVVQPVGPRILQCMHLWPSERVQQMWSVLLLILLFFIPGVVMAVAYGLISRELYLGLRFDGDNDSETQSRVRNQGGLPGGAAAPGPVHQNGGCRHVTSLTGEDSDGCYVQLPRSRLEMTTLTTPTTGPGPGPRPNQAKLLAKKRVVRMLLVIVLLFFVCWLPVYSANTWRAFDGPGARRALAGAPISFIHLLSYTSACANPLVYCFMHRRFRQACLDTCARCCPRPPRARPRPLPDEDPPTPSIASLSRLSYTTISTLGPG

## CC(Cc1c[nH]c2ccccc12)(NC(=O)NC(c1ccccc1)(c1ccccc1)c1ccccc1)C(=O)NCCc1ccccc1 (stereo not drawn)
[1]
  Ki: 1780 nM

## CC(Cc1ccc2ccccc2c1)(NC(=O)OC1[C@H]2C[C@@H]3C[C@@H](C[C@H]1C3)C2)C(=O)N(CCc1ccccc1)CC(=O)O (stereo partly drawn)
[1]
  Ki: 70 nM

## CC(Cc1c[nH]c2ccccc12)(NC(=O)OC1[C@H]2C[C@@H]3C[C@@H](C[C@H]1C3)C2)C(=O)Nc1ccccc1 (stereo partly drawn)
[1]
  Ki: 6080 nM

## CC(Cc1c[nH]c2ccccc12)(NC(=O)OC1[C@H]2C[C@@H]3C[C@@H](C[C@H]1C3)C2)C(=O)NCCc1ccccc1 (stereo partly drawn)
[1]
  Ki: 1890 nM

## CC(Cc1ccc(Br)cc1)(NC(=O)OC1[C@H]2C[C@@H]3C[C@@H](C[C@H]1C3)C2)C(=O)N(CCc1ccccc1)CC(=O)O (stereo partly drawn)
[1]
  Ki: 3410 nM

## O=C(O)CN(CCc1ccccc1)C(=O)C(Cc1c[nH]c2ccccc12)NC(=O)OC1[C@H]2C[C@@H]3C[C@@H](C[C@H]1C3)C2 (stereo partly drawn)
[1]
  Ki: 2840 nM

## CC(Cc1c[nH]c2ccccc12)(NC(=O)OC1[C@H]2C[C@@H]3C[C@@H](C[C@H]1C3)C2)C(=O)N(CCc1ccc(Cl)cc1Cl)CC(=O)O (stereo partly drawn)
[1]
  Ki: 1040 nM

## CC(Cc1c[nH]c2ccccc12)(NC(=O)OC1[C@H]2C[C@@H]3C[C@@H](C[C@H]1C3)C2)C(=O)NCc1ccccc1 (stereo partly drawn)
[1]
  Ki: 4100 nM

## CC(Cc1c[nH]c2ccccc12)(NC(=O)OC1[C@H]2C[C@@H]3C[C@@H](C[C@H]1C3)C2)C(=O)N(CCc1ccc(Cl)cc1)CC(=O)O (stereo in doubt; 26)
[1]
  Ki: 1130 nM
[2]
  Ki: 1360 nM

## CC(Cc1c[nH]c2ccccc12)(NC(=O)OC1[C@H]2C[C@@H]3C[C@@H](C[C@H]1C3)C2)C(=O)NCCc1ccc(Cl)cc1 (stereo partly drawn)
[1]
  Ki: 1610 nM

## CC(Cc1ccccc1)(NC(=O)OC1[C@H]2C[C@@H]3C[C@@H](C[C@H]1C3)C2)C(=O)N(CCc1ccccc1)CC(=O)O (stereo partly drawn)
[1]
  Ki: 3800 nM

## CC(Cc1c[nH]c2ccccc12)(NC(=O)OC1[C@H]2C[C@@H]3C[C@@H](C[C@H]1C3)C2)C(=O)NCCc1ccc(Br)cc1 (stereo partly drawn)
[1]
  Ki: 2140 nM

## CC(Cc1c[nH]c2ccccc12)(NC(=O)OC1[C@H]2C[C@@H]3C[C@@H](C[C@H]1C3)C2)C(=O)N(CCc1ccc(Cl)cc1)CC(=O)O (stereo in doubt; 26A)
[1]
  Ki: 1060 nM
[2]
  Ki: 1230 nM

## CC(Cc1c[nH]c2ccccc12)(C(=O)OC1[C@H]2C[C@@H]3C[C@@H](C[C@H]1C3)C2)C(=O)N(CCc1ccc(Cl)cc1Cl)CC(=O)O (stereo partly drawn)
[3]
  Ki: 28 nM
[4]
  Ki: 14 nM
[1]
  Ki: 3050 nM
[2]
  Ki: 1220 nM

## CC(Cc1c[nH]c2ccccc12)(NC(=O)OC1[C@H]2C[C@@H]3C[C@@H](C[C@H]1C3)C2)C(=O)NCCc1ccc(Cl)c(Cl)c1 (stereo partly drawn)
[1]
  Ki: 1540 nM

## CC(Cc1c[nH]c2ccccc12)(NC(=O)Nc1ccc2ccccc2c1)C(=O)NCCc1ccccc1 (stereo not drawn)
[1]
  Ki: 769 nM

## CC(Cc1c[nH]c2ccccc12)(NC(=O)OC1[C@H]2C[C@@H]3C[C@@H](C[C@H]1C3)C2)C(=O)Nc1ccc2ccccc2c1 (stereo partly drawn)
[1]
  Ki: 2360 nM

## CC(Cc1cccc2ccccc12)(NC(=O)OC1[C@H]2C[C@@H]3C[C@@H](C[C@H]1C3)C2)C(=O)N(CCc1ccccc1)CC(=O)O (stereo partly drawn)
[1]
  Ki: 2010 nM

## COc1ccc(CCNC(=O)C(C)(Cc2c[nH]c3ccccc23)NC(=O)OC2[C@H]3C[C@@H]4C[C@@H](C[C@H]2C4)C3)cc1 (stereo partly drawn)
[1]
  Ki: 3120 nM

## CC(Cc1c[nH]c2ccccc12)(NC(=O)OC1[C@H]2C[C@@H]3C[C@@H](C[C@H]1C3)C2)C(=O)NCCc1ccc([N+](=O)[O-])cc1 (stereo partly drawn)
[1]
  Ki: 2350 nM

## CC(Cc1c[nH]c2ccccc12)(NC(=O)OC1[C@H]2C[C@@H]3C[C@@H](C[C@H]1C3)C2)C(=O)NCCCc1ccccc1 (stereo partly drawn)
[1]
  Ki: 4250 nM

## CC(Cc1c[nH]c2ccccc12)(NC(=O)OC1[C@H]2C[C@@H]3C[C@@H](C[C@H]1C3)C2)C(=O)NCC(=O)O (stereo partly drawn)
[1]
  Ki: > 4000 nM

## CC(Cc1c[nH]c2ccccc12)(NC(=O)Nc1ccc(Cl)cc1)C(=O)NCCc1ccccc1 (stereo not drawn)
[1]
  Ki: 6330 nM

## CC(Cc1c[nH]c2ccccc12)(NC(=O)OC1[C@H]2C[C@@H]3C[C@@H](C[C@H]1C3)C2)C(=O)N(CCc1ccccc1)CC(=O)O (stereo partly drawn)
[1]
  Ki: 1520 nM
[2]
  Ki: 531 nM

## CC(Cc1c[nH]c2ccccc12)(NC(=O)OC1[C@H]2C[C@@H]3C[C@@H](C[C@H]1C3)C2)C(=O)NCCc1ccc(Cl)cc1Cl (stereo partly drawn)
[1]
  Ki: 3160 nM

## CC(Cc1c[nH]c2ccccc12)(NC(=O)OC1[C@H]2C[C@@H]3C[C@@H](C[C@H]1C3)C2)C(=O)NCCc1cccc2ccccc12 (stereo partly drawn)
[1]
  Ki: 2370 nM

## CC(Cc1c[nH]c2ccccc12)(NC(=O)OC1[C@H]2C[C@@H]3C[C@@H](C[C@H]1C3)C2)C(=O)N(CCC(=O)O)CCc1ccccc1 (stereo partly drawn)
[1]
  Ki: 1320 nM

Reference: ChEMBL document CHEMBL1126830, “Cholecystokinin peptidomimetics as selective CCK-B antagonists: design, synthesis, and in vitro and in vivo biochemical properties” (J Med Chem, 1993)
